Data from paper PMC12316891, “A bottom-up approach to find lead compounds in expansive chemical spaces” (Communications Chemistry, 2025).

Assays:
BRD4 (BD1) [1] = biological target: T1, BRD4 (BD1) (Homo sapiens, UniProt O60885); assay: Differential scanning fluorimetry (DSF) single-dose thermal shift screening; format: binding; conditions: DSF, compound 10 µM, BRD4 (BD1) 2 µM, n = 3, decimal comma; read-out: ΔTm ºC at [10 µM]
T1 construct: A pET28 plasmid containing residues 44–168 of BRD4 (BD1), a 6xHis tag, a TEV protease cleavage site; 6xHis (N, cleaved yes); made in house; host or cells: E. coli Rosetta (D3)

His6-BRD4 (BD1) = biological target: T2, His6-BRD4 (BD1) (Homo sapiens, UniProt O60885); assay: Surface plasmon resonance (SPR) single-dose screening; format: binding; parameters: key to SPR RESULT: Positive: compounds were considered as SPR hits also when their average signal was further than two standard deviations apart from the average signal of the blank samples (1% DMSO); conditions: for RUs at [10 µM]: SPR, compound 10 µM, 1% DMSO, n = 2, decimal comma; for SPR RESULT: single dose 10 µM, n = 2
T2 construct: A pET28 plasmid containing residues 44–168 of BRD4 (BD1), a 6xHis tag, a TEV protease cleavage site; made in house; host or cells: E. coli Rosetta (D3)

BRD4 (BD1) [2] = biological target: T1, BRD4 (BD1); assay: Competitive HTRF TR-FRET binding assay (displacement of acetylated histone H4 peptide); conditions: for TR-FRET IC50 (nM) / IC50: 16-point titration 0.1 nM to 10 µM, n = 2, Negative = curve could not be fitted to a sigmoidal curve; for IC50: read-out: TR-FRET IC50
Method: To further quantitatively characterize the DSF/SPR hits compounds obtained in the single-dose screenings, we selected HTRF TR-FRET. Specifically, we employed a competitive HTRF TR-FRET experiment to measure the compound’s capacity to displace an acetylated peptide from the binding site of BRD4 (BD1). For each molecule, a 16-point concentration curve was titrated against the peptide-BRD (BD1) complex and incubated for 1.5 h. A compound was considered a positive binder if we could fit its titration curve to a sigmoidal curve to determine its IC50. […] Compound screening was carried out in 384-well, white, round-bottom, small-volume plates (CORNING) in a final volume of 20 µL of 50 mM HEPES (pH 7.4), 50 mM NaCl, 400 mM KF, 0.5 mM CHAPS, and 0.05% BSA. […] Then, the labeled anti-His6-XL665 antibody (CisBio) (10 nM) was added to the mixture and incubated for 15 min, before the Eu3+ cryptate-conjugated streptavidin (2 nM) (CisBio) was added and incubated for 15 min. All incubations were performed at room temperature. […] Titration of (+)−JQ1 was used as a positive control for each experiment.

Structure (SMILES) | ΔTm at 10 µM (BRD4 (BD1) [1]) | RUs at [10 µM] (His6-BRD4 (BD1)) | SPR RESULT (His6-BRD4 (BD1)) | TR-FRET IC50 (nM) (BRD4 (BD1) [2]) | IC50 (BRD4 (BD1) [2]) | IC50 by HTRF TR-FRET, range in words (BRD4 (BD1) [2]; potency range or dose-response behaviour)
COC1(CNC(=O)C2=C(Cl)CCCC2)CCN(C(=O)c2sc3nnc(C)c(C)c3c2N)CC1 [Compound 57, COC1(CNC(=O)C2=C(Cl)CCCC2)CCN(CC1)C(=O)C=3SC=4N=NC(C)=C(C)C4C3N] | 0.48 °C | 26,22 ± 6,56 RUs | Positive | Negative |  | 
COc1ccc2c(c1)N(C(=O)c1cn(C)c(=O)c3ccccc13)CC2 [Compound 15, COC=1C=CC=2CCN(C(=O)C3=CN(C)C(=O)C=4C=CC=CC34)C2C1] | 1.71 °C | 28,19 ± 22,85 RUs | Negative |  | 1010 nM | 
Cn1ccnc1C1CCN(C(=O)c2nn(C)c(=O)c3ccccc23)C1 (stereo not shown) [Compound 13, CN1C=CN=C1C2CCN(C2)C(=O)C3=NN(C)C(=O)C=4C=CC=CC34] | 0.45 °C | 5,53 ± 2,74 RUs | Negative |  | 1.46 nM | 
COc1ccc(C=C(CC(=O)Nc2nnc(C)s2)c2nc3ccccc3s2)cc1OC [Compound 70, COC=1C=CC(C=C(CC(=O)NC2=NN=C(C)S2)C3=NC=4C=CC=CC4S3)=CC1OC] | 0.65 °C | 21,72 ± 4,06 RUs | Positive |  | 123 nM | 
CCn1nnc2cc(C(=O)N3CCC(CCNC(=O)c4nc(O)sc4C)C3)ccc21 (stereo not shown) [Compound 31, CCN1N=NC=2C=C(C=CC12)C(=O)N3CCC(CCNC(=O)C=4N=C(O)SC4C)C3] | 0.02 °C | 8,73 ± 4,6 RUs | Negative | Negative |  | 
COc1ccc(-c2cc(NC(=O)C(=O)NC(C)c3nnc4ncccn34)ccc2OC)cc1 (stereo not shown) [Compound 47, COC=1C=CC(=CC1)C=2C=C(NC(=O)C(=O)NC(C)C3=NN=C4N=CC=CN34)C=CC2OC] | 1.25 °C | 25,41 ± 18,52 RUs | Negative |  | 256 nM | 
COC(=O)c1cc(CNC(=O)C=Cc2cnc(C)[nH]c2=O)ccc1Cl [Compound 87, COC(=O)C=1C=C(CNC(=O)C=CC2=CN=C(C)NC2=O)C=CC1Cl] | 2.3 °C | 15,1 ± 2,46 RUs | Positive |  | 11.1 nM | low nM
CCn1nnc2cc(C(=O)N3CCC(c4nnc(CNC(=O)c5ccncn5)s4)CC3)ccc21 [Compound 56, CCN1N=NC=2C=C(C=CC12)C(=O)N3CCC(CC3)C4=NN=C(CNC(=O)C=5C=CN=CN5)S4] | 3.79 °C | 10,07 ± 8,75 RUs | Negative |  | 722 nM | 
Cc1nnc(NC(=O)CNC(c2ccc(F)cc2)c2cnn(C)c2)s1 (stereo not shown) [Compound 88, CC1=NN=C(NC(=O)CNC(C=2C=NN(C)C2)C=3C=CC(F)=CC3)S1] | 0.54 °C | 4,11 ± 7,31 RUs | Negative |  | 2260 nM | 
COC1CC(CCC(=O)NC2CC3(CCN(C(=O)c4occc4Br)C3)Oc3ccccc32)C1 (stereo not shown) [Compound 62, COC1CC(CCC(=O)NC2CC3(CCN(C3)C(=O)C=4OC=CC4Br)OC=5C=CC=CC25)C1] | -0.15 °C | 23,54 ± 4,84 RUs | Positive | Negative |  | 
CCOc1ccc(-c2cn(C3CC(NC(=O)c4cc(C)nc5ncnn45)C3)nn2)cc1F (stereo not shown) [Compound 82, CCOC=1C=CC(=CC1F)C2=CN(N=N2)C3CC(C3)NC(=O)C4=CC(C)=NC5=NC=NN45] | -0.24 °C | 38,3 ± 6,87 RUs | Positive |  | 29.7 nM | 
COc1ccc(CNc2ccc3ccn(C)c(=O)c3c2)cc1OCC(C)C [Compound 38, COC=1C=CC(CNC=2C=CC=3C=CN(C)C(=O)C3C2)=CC1OCC(C)C] | 0.25 °C | 30,29 ± 13,03 RUs | Negative | Negative |  | 
